Reference: patent US20170275249A1, “SMALL LIPOPEPTIDOMIMETIC INHIBITORS OF GHRELIN O-ACYL TRANSFERASE” (THE REGENTS OF THE UNIVERSITY OF CALIFORNIA, priority 2014, published 2017)
pIC50: −log10 of the molar value. Like-named read-outs stand apart in the source and are kept apart here.

What was measured:
[1] = human
Method: (§1) (Taylor, M. S. et al., 2012, Methods in Enzymology 514:205-228.) For in vitro as well as in vivo pharmacokinetic analyses, inhibitor concentration was determined using LC/MS/MS.
(§2) GOAT inhibitor (Compound 1) and control (Compound 2) were added to liver S9 fractions or mouse plasma and the concentrations of each compound over time were quantified using LC/MS/MS.

[2] = mouse plasma
Method: as §1, §2

mouse GOAT = target: T1, mouse GOAT (Mus musculus, UniProt P0C7A3); test: ghrelin radio-octanoylation assay (Yang et al.), Sf9 membrane fractions; assay type: biochemical; details: for GOAT-inhibiting activity in vitro: relative to Compound 1; for IC50: Table 1, inhibitory activity against GOAT, cells printed in nM
T1 construct: made in house; host or cells: Sf9 insect cells (baculovirus), membrane fractions
T1 sequence (P0C7A3 1-435): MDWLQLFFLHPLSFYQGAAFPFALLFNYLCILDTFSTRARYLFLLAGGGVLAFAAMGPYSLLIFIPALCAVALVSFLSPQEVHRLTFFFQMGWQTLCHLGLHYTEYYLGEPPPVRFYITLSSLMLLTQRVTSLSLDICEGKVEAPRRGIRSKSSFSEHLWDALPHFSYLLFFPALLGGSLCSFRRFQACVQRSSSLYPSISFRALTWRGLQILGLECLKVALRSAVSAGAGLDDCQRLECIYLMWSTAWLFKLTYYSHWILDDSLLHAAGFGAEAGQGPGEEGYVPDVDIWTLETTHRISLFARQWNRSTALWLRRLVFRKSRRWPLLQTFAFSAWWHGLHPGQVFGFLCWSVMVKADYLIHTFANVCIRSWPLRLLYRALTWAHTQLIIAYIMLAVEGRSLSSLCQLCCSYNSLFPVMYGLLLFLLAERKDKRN
Method: In vitro activity was quantified using the octanoylation assay developed by Yang et al. (2008, Proc. Natl. Acad. Sci. USA 105:10750-10755). No pure or soluble form of GOAT that retains enzymatic activity is thus far available. Recombinant poly-His-tagged ghrelin was incubated with radiolabeled octanoyl CoA and membrane fractions isolated from Sf9 cells infected with a GOAT-encoding baculovirus. Recovery of acyl- and des-acyl ghrelin using a Ni^2+ affinity column was followed by scintillation counting to determine the extent of acyltransferase activity, which was reported as a percentage of control.
Thiosarcosine derived peptidomimetic Compound 1 (of Example 1.1) and truncated analog Compound 2 (of Example 1.2), which served as a negative control, were screened for GOAT-inhibiting activity using membrane fractions prepared from Sf9 cells infected with baculovirus encoding mouse GOAT as a source of the acyltransferase. The assay detected specific acyl transfer from tritiated octanoyl-CoA to recombinant His-tagged proghrelin.

[3] = tested on: GOAT/preproghrelin-expressing INS-1 cells; test: acyl ghrelin production in intact cells, Western immunoblot; assay type: cell-based; details: 18 hours incubation
Method: Molecular parameters for Compound 1 were well within those characteristics of orally bioavailable drugs. In INS-1 cell culture, compounds were administered to cultured INS-1 cells that had been engineered to express GOAT and preproghrelin. After incubating the cells in the presence of the compounds for 18 hours, the cells were lysed and ghrelin species (acyl ghrelin vs. total ghrelin) present in the lysates were quantified by Western immunoblot. […] Total ghrelin levels were unchanged irrespective of the inhibitor concentration that was present.

measured LogD = assay type: physicochemical
[4] = tested on: acyl ghrelin : total ghrelin ratio in serum; test: time course of serum acyl ghrelin after IP administration; assay type: in vivo; details: mice, 80 mg/kg IP, FIG. 3
Method: Compound 1 was administered intraperitoneally (IP) to mice (dosed at 80 mg/kg) at time zero and blood samples were collected at indicated timepoints (see FIG. 3). Serum acyl ghrelin: total ghrelin ratios were determined using ELISA with antibodies specific for acyl or des-acyl ghrelin. Inhibitor concentrations were determined using LC/MS/MS detection. […] Reappearance of acyl-ghrelin tracked with the time-dependent change in inhibitor concentration in plasma.

[5] = stability in mouse plasma (LC/MS/MS)
Method: as §1, §2

[6] = stability in liver S9 fractions (LC/MS/MS); details: human liver S9 fractions
Method: as §1, §2

oral bioavailability = assay type: in vivo

CCCCC1CC(C(=O)NC[C@H]2CCCN2C(=O)[C@@H](N)C(C)(C)C)C1.CCCCC1CC(C(=O)NC[C@H]2CCCN2C(=O)[C@@H](N)C(C)(C)C)C1.O=C(O)C(O)C(O)C(=O)O (stereo partly drawn) [Compound 2, (1s,3R)—N—(((R)-1-((S)-2-AMINO-3,3-DIMETHYLBUTANOYL)PYRROLIDIN-2-YL)METHYL)-3-BUTYLCYCLOBUTANECARBOXAMIDE HEMITARTRATE]
Liver S9 t1/2 [1]: 2.08 h
Plasma t1/2 [2]: 1.52 h
GOAT-inhibiting activity in vitro (mouse GOAT): inactive
inhibition of acyl ghrelin biosynthesis ([3]; FIG. 4): inactive

CCCC[C@H]1C[C@@H](C(=O)NCCN(C)C(=O)[C@@H](NC(=O)CN)C2CCCCC2)C1 [Entry 1]
IC50 (mouse GOAT): 2000 nM

CCCCC1CC(C(=O)NC[C@H]2CCCN2C(=O)[C@@H](N)C(C)(C)C)C1 (some centres unmarked) [Entry 2]
IC50 (mouse GOAT): > 3000 nM

CCCC[C@H]1C[C@@H](C(=O)NC[C@H]2CCCN2C(=O)[C@@H](NC(=N)CN)C2CCCCC2)C1 [Entry 7]
IC50 (mouse GOAT): > 3000 nM

CCCC[C@H]1C[C@@H](C(=O)NC[C@H]2CCCN2C(=O)[C@@H](N)C2CCCCC2)C1 [Entry 9]
IC50 (mouse GOAT): > 3000 nM

C=CCOC(=O)NCC(=S)N[C@H](C(=O)N1CCC[C@@H]1CNC(=S)C1CC(CCCC)C1)C(C)(C)C (some centres unmarked) [Entry 15]
IC50 (mouse GOAT): > 3000 nM

CCCC[C@H]1C[C@H](C(=S)NC[C@H]2CCCN2C(=O)[C@@H](NC(=S)CN)C(C)(C)C)C1 [Entry 16, (1s,3R)—N—(((R)-1-((S)-2-(2-AMINOETHANETHIOAMIDO)-3,3-DIMETHYLBUTANOYL)PYRROLIDIN-2-YL)METHYL)-3-BUTYLCYCLOBUTANECARBOTHIOAMIDE]
IC50 (mouse GOAT): 200 nM

CCCC[C@H]1C[C@@H](C(=S)NC[C@H]2CCCN2C(=O)[C@@H](NC(=O)CN)C2CCCCC2)C1 [Entry 20]
IC50 (mouse GOAT): 650 nM

CCCC[C@H]1C[C@H](C(=O)NC[C@H]2CCCN2C(=O)[C@@H](NC(=S)CN)C(C)(C)C)C1 [Entry 26]
IC50 (mouse GOAT): 25 nM

CCCCC1CC(C(=S)NC[C@H]2CCCN2C(=O)[C@@H](NC(=S)CN)C(C)(C)C)C1 (stereo partly drawn) [inhibitor 10, (1s,3R)—N—(((R)-1-((S)-2-(2-AMINOETHANETHIOAMIDO)-3,3-DIMETHYLBUTANOYL)PYRROLIDIN-2-YL)METHYL)-3-BUTYLCYCLOBUTANECARBO-THIOAMIDE HEMITARTRATE]
GOAT-inhibiting activity in vitro (mouse GOAT): equally potent

(1s,3R)-3-BUTYL-N—(((R)-1-((S)-3,3-DIMETHYL-2-(2-(METHYLAMINO)ETHANETHIOAMIDO)BUTANOYL)PYRROLIDIN-2-YL)METHYL)CYCLOBUTANE CARBOXAMIDE HEMITARTRATE [Compound 1]
Measured LogD (measured LogD): 1.71
time at which acyl-ghrelin recovered [4]: 3 h
acyl-ghrelin in circulation ([4]; within minutes): near undetectable levels
pIC50 (mouse GOAT; FIG. 2, tritiated octanoyl-CoA, His-tagged proghrelin): ~7.52
potency compared side-by-side with prior art GOAT inhibitors (mouse GOAT; FIG. 6, versus compounds 3, 4, 5 and 6): by far the most potent inhibitor of GOAT
Plasma t1/2 [5]: >10.5 h
stability in mouse plasma [5]: stable
Liver S9 t1/2 [6]: 2.03 h
metabolism by liver S9 fractions [6]: slowly metabolized
oral bioavailability % F (oral bioavailability): 10-15%
concentration at which production of acyl ghrelin was inhibited ([3]; FIG. 4): greater than 1 μM
concentration at which production of acyl ghrelin was substantially completely blocked ([3]; FIG. 4): above 5 μM
total ghrelin levels ([3]; irrespective of inhibitor concentration): unchanged
